Laboratory results from ChEMBL document CHEMBL1201862, “PubChem BioAssay data set” (2004).
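Protocol summary: plate cells (96-well), add compound at 5 concentrations, incubate 48 h, interpolate endpoints linearly. GI50 = concentration required for 50% inhibition of growth.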 Activity calls are given as the source filed them. Rule as the data show it: active = GI50 up to about 1.1 µM and inactive = higher.

Columns and labels:
Assay in all cases: NCI anticancer screen, dose series, 48 h
UACC-62 = test system: UACC-62
OVCAR-8 = test system: OVCAR-8
UACC-257 = test system: UACC-257
NCI-H23 = test system: NCI-H23
786-0 = test system: 786-0
HCT-116 = test system: HCT-116
LOX IMVI = test system: LOX IMVI
HT-29 = test system: HT-29
A549 = test system: A549
HL-60 = test system: HL-60
HOP-92 = test system: HOP-92
SNB-19 = test system: SNB-19
SW-620 = test system: SW-620
HCC 2998 = test system: HCC 2998
OVCAR-3 = test system: OVCAR-3
MCF7 = test system: MCF7
HCT-15 = test system: HCT-15
MDA-MB-231 = test system: MDA-MB-231
M14 = test system: M14
OVCAR-5 = test system: OVCAR-5

SMILES	GI50 (UACC-62)	GI50 (OVCAR-8)	GI50 (UACC-257)	GI50 (NCI-H23)	GI50 (786-0)	GI50 (HCT-116)	GI50 (LOX IMVI)	GI50 (HT-29)	GI50 (A549)	GI50 (HL-60)	GI50 (HOP-92)	GI50 (SNB-19)	GI50 (SW-620)	GI50 (HCC 2998)	GI50 (OVCAR-3)	GI50 (MCF7)	GI50 (HCT-15) [µM]	GI50 (MDA-MB-231)	GI50 (M14)	GI50 (OVCAR-5)
NC1CCC(c2cc3ccccc3s2)(N2CCCCC2)CC1 (stereo not given)	2.47 µM (inactive)	1.72 µM (inactive)	1.62 µM (inactive)	1.64 µM (inactive)	1.5 µM (inactive)	1.69 µM (inactive)	1.51 µM (inactive)	1.21 µM (inactive)	1.77 µM (inactive)	1.85 µM (inactive)	0.489 µM (active)	12.5 µM (inactive)	1.61 µM (inactive)	1.04 µM (active)	1.27 µM (inactive)	1.68 µM (inactive)	1.77	3.35 µM (inactive)	1.54 µM (inactive)	1.48 µM (inactive)
N=C1C(=N)c2ccccc2-c2ccccc21	1.39 µM (inactive)	1.03 µM (active)	0.692 µM (active)	0.6 µM (active)	2.09 µM (inactive)	0.384 µM (active)	0.31 µM (active)	1.83 µM (inactive)	1.74 µM (inactive)	0.194 µM (active)	2.49 µM (inactive)	1.53 µM (inactive)	1 µM (active)	1.96 µM (inactive)	0.354 µM (active)	0.792 µM (active)	1.55	0.313 µM (active)	1.05 µM (active)	2 µM (inactive)
N#CC(c1ccccc1)N(CCc1ccccc1)C(=O)Oc1ccccc1 (stereo not given)	> 100 µM (inactive)	> 100 µM (inactive)	> 100 µM (inactive)	> 100 µM (inactive)	> 100 µM (inactive)	> 100 µM (inactive)	> 100 µM (inactive)	> 100 µM (inactive)	> 100 µM (inactive)	> 100 µM (inactive)	29.5 µM (inactive)	53 µM (inactive)	> 100 µM (inactive)	> 100 µM (inactive)	> 100 µM (inactive)	> 100 µM (inactive)	> 100	> 100 µM (inactive)	> 100 µM (inactive)	> 100 µM (inactive)
C=CCOc1ccc(C(=N/NC(=O)c2ccccc2)/N=N/c2ccc([N+](=O)[O-])cc2)cc1OC	> 100 µM (inactive)	> 100 µM (inactive)	> 100 µM (inactive)	> 100 µM (inactive)	> 100 µM (inactive)	58.6 µM (inactive)	82.6 µM (inactive)	> 100 µM (inactive)	> 100 µM (inactive)	93.3 µM (inactive)	18.6 µM (inactive)	> 100 µM (inactive)	> 100 µM (inactive)	74.1 µM (inactive)	> 100 µM (inactive)	> 100 µM (inactive)	> 100	> 100 µM (inactive)	> 100 µM (inactive)	> 100 µM (inactive)
COC(=O)c1ccccc1C1CN=NC12Cc1ccc(C)c(C)c1C2=O (stereo not given)	74 µM (inactive)	> 100 µM (inactive)	25.8 µM (inactive)	19.1 µM (inactive)	> 100 µM (inactive)	29.6 µM (inactive)	14.6 µM (inactive)	27.2 µM (inactive)	57.5 µM (inactive)	16.3 µM (inactive)	28.2 µM (inactive)	> 100 µM (inactive)	> 100 µM (inactive)	68.9 µM (inactive)	> 100 µM (inactive)	35.6 µM (inactive)	33.9	40.2 µM (inactive)	62.7 µM (inactive)	> 100 µM (inactive)
CC1(C)CC[C@]2(C(=O)O)CC[C@]3(C)C(=CC[C@@H]4[C@@]5(C)CC[C@H](OC6OC(CO)C(O)C(O)C6O)C(C)(C)[C@@H]5CC[C@]43C)[C@@H]2C1 (stereo not given in full)	1.82 µM (inactive)	1.75 µM (inactive)	1.69 µM (inactive)	1.99 µM (inactive)	1.77 µM (inactive)	1.69 µM (inactive)	1.66 µM (inactive)	1.62 µM (inactive)	1.68 µM (inactive)	2 µM (inactive)	1.68 µM (inactive)	1.52 µM (inactive)	1.82 µM (inactive)	1.59 µM (inactive)	1.61 µM (inactive)	2.37 µM (inactive)	2.75	1.66 µM (inactive)	1.75 µM (inactive)	1.9 µM (inactive)
O=C(O)CCC(=O)c1ccc2ccc3cccc4ccc1c2c34	> 100 µM (inactive)	66.7 µM (inactive)	33 µM (inactive)	> 100 µM (inactive)	68.9 µM (inactive)	65.8 µM (inactive)	71.8 µM (inactive)	63.8 µM (inactive)	62.2 µM (inactive)	23 µM (inactive)	> 100 µM (inactive)	92.9 µM (inactive)	59.2 µM (inactive)	21.4 µM (inactive)	53.7 µM (inactive)	54.3 µM (inactive)	38	64 µM (inactive)	> 100 µM (inactive)	> 100 µM (inactive)
